This is an account of results in patent publication US10253060B2, “Terpenoid derivatives” (Daiichi Sankyo Company, Limited, priority 2013, dated 2019).

The test system of data set [1] is ARPE-19 cells. Description: Cytotoxicity, LDH-Cytotoxic Test in ARPE-19 cells. To be noted: 10 μM, approx. 16 hours, 3 wells. In kind it is cell-based, human. The protocol:
ARPE-19 cells (human retinal pigment epithelium cell line, ATCC, catalog No. CRL-2302) were cultured (5% CO2, 37° C.). A DMEM/F12 (Life Technologies Japan Ltd., catalog No. 11330-032) mixed medium containing 10% inactivated FBS was used. The medium contained 100 units/mL (final concentration) penicillin and 100 μg/[…] (final concentration) streptomycin.
The ARPE-19 cells were seeded at 5000 cells/well in a 96-well plate. The amount of the medium was 50 μL. Approximately 3 hours later, 50 μL of a medium containing CDDO-Me or each of terpenoid derivatives A to H was added thereto, followed by culture for approximately 16 hours. Then, cytotoxicity was evaluated using LDH-Cytotoxic Test (Wako Pure Chemical Industries, Ltd., catalog No. 299-50601). The evaluation method followed the attached document. Each group consisted of 3 wells and was indicated as cytotoxicity at the concentration of 10 μM. The means thereof were 43% for CDDO-Me, 2% for terpenoid derivative A, 2% for terpenoid derivative B, 2% for terpenoid derivative C, 1% for terpenoid derivative D, 2% for terpenoid derivative E, 3% for terpenoid derivative F, 3% for terpenoid derivative G, and 1% for terpenoid derivative H. Terpenoid derivatives A to H were low in cytotoxicity as compared with CDDO-Me.

Data set [2] has as its system NQO1. Description: NQO1 assay in Hepa1c1c7 cells. As to conditions: approx. 48 hours, mean of 3 wells. In kind it is cell-based, mouse. The protocol:
Hepa1c1c7 cells (mouse hepatic cell line, ATCC, catalog No. CRL-2026) were cultured (5% CO2, 37° C.). A DMEM (Life Technologies Japan Ltd., catalog No. 11965-092) medium also containing 10% inactivated FBS was used. The medium contained 100 units/mL (final concentration) penicillin and 100 μg/[…] (final concentration) streptomycin. The NQO1 assay was conducted according to previous reports (Anal Biochem 1998; 169: 328-; and Methods Enzymol 2004; 382: 243-).
The Hepa1c1c7 cells were seeded at 10000 cells/well in a 96-well plate. The amount of the medium was 100 μL. Approximately 24 hours later, the medium was replaced with a medium containing CDDO-Me or each of terpenoid derivatives A to G, followed by further culture for approximately 48 hours. A lysis solution (a solution containing 2 mM EDTA and 0.8% digitonin), a reaction solution (a solution containing 0.025 M of tris-HCl, 0.067% of albumin, 0.01% of Tween-20, 2 U/mL of glucose-6-phosphate dehydrogenase, 5 μM of flavin adenine dinucleotide, 1 […], 30 μM of nicotinamide adenine dinucleotide phosphate, 0.03% of 3-(4,5-dimethyl-2-thiazolyl)-2,5-diphenyltetrazolium bromide (MTT), and 50 μM of menadione), and a stop solution (a solution containing 0.3 mM dicumarol and 5 mM potassium dihydrogen phosphate, pH 7.4) were prepared. After removal of the medium, 50 μL of the lysis solution was added thereto, and the mixture was left standing at 37° C. for 10 minutes. The reaction mixture was further shaken at room temperature for 10 minutes.
Two hundred μL of the solution was added thereto, and the mixture was left standing at room temperature for 5 minutes. Fifty μL of the stop solution was added thereto, and the absorbance at 490 nm was measured.
The test results were analyzed using Prism (GraphPad Software, Inc., Ver. 5) to calculate the CD value of the concentration at which the activity of NQO1 was increased 2-fold. Each group consisted of 3 wells and indicated as a mean of CD values.

As to `CC1(C)CC(O)[C@]2(C(N)=O)CC[C@]3(C)[C@H](C(=O)C=C4[C@@]5(C)C6OC6(C#N)C(=O)C(C)(C)[C@@H]5CC[C@]43C)[C@@H]2C1` (stereo partly shown) [terpenoid derivative E], the “cytotoxicity (LDH-Cytotoxic Test), mean” value in data set [1] worked out at 2%. Further, in data set [2], the “CD value (concentration at which the activity of NQO1 was increased 2-fold)” value amounted to 2.1 nM.
As to `COC(=O)[C@]12CCC(C)(C)C[C@H]1[C@H]1C(=O)C=C3[C@@]4(C)C5OC5(C#N)C(=O)C(C)(C)[C@@H]4CC(O)[C@@]3(C)[C@]1(C)CC2` (stereo partly shown) [terpenoid derivative H], the “cytotoxicity (LDH-Cytotoxic Test), mean” value in data set [1] is given as 1%.
`CC1(C)C[C@H]2[C@H]3C(=O)C=C4[C@@]5(C)C6OC6(C#N)C(=O)C(C)(C)[C@@H]5CC[C@@]4(C)[C@]3(C)CC[C@@]2(C#N)CC1O` (stereo partly shown) [terpenoid derivative F]: the “cytotoxicity (LDH-Cytotoxic Test), mean” value in data set [1] was found to be 3%. Also, in data set [2], the “CD value (concentration at which the activity of NQO1 was increased 2-fold)” value worked out at 0.1 nM.
As for `CC1(C)C[C@H]2[C@H]3C(=O)C=C4[C@@]5(C)C=C(C#N)C(=O)C(C)(C)[C@@H]5CC[C@@]4(C)[C@]3(C)CC[C@@]2(C#N)CC1O` (stereo partly shown) [terpenoid derivative G], the “cytotoxicity (LDH-Cytotoxic Test), mean” value in data set [1] worked out at 3%. Further, in data set [2], the “CD value (concentration at which the activity of NQO1 was increased 2-fold)” value was 0.1 nM.
On to `COC(=O)[C@]12CC[C@@](C)(CO)C[C@H]1[C@H]1C(=O)C=C3[C@@]4(C)[C@H]5O[C@@]5(C#N)C(=O)C(C)(C)[C@@H]4CC[C@@]3(C)[C@]1(C)CC2` [terpenoid derivative D], for which the “cytotoxicity (LDH-Cytotoxic Test), mean” value in data set [1] turned out to be 1%. The “CD value (concentration at which the activity of NQO1 was increased 2-fold)” value in data set [2] turned out to be 0.9 nM.
With `COC(=O)[C@@]12CC[C@]3(C)[C@H](C(=O)C=C4[C@@]5(C)[C@H]6O[C@@]6(C#N)C(=O)C(C)(C)[C@@H]5CC[C@]43C)[C@@H]1CC(C)(C)C(=O)C2` [terpenoid derivative C], the “cytotoxicity (LDH-Cytotoxic Test), mean” value in data set [1] was determined as 2%. The “CD value (concentration at which the activity of NQO1 was increased 2-fold)” value in data set [2] stood at 0.4 nM.
Turning to `COC(=O)[C@]12CC[C@](C)(CO)C[C@H]1[C@H]1C(=O)C=C3[C@@]4(C)[C@H]5O[C@@]5(C#N)C(=O)C(C)(C)[C@@H]4CC[C@@]3(C)[C@]1(C)CC2` [terpenoid derivative A], the “cytotoxicity (LDH-Cytotoxic Test), mean” value in data set [1] was 2%. Also, the “CD value (concentration at which the activity of NQO1 was increased 2-fold)” value in data set [2] is recorded as 1.3 nM.
